Among the test systems are DLD-1 colon; DMS 114 small cell lung; HOP-18 NSCLC; KM20L2 colon; LXFL 529 NSCLC; SNB-78 CNS; RXF-631 renal; XF 498 CNS; MDA-N.
Holding throughout (test): NCI tumour cell line growth inhibition, 48 h

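Briefly, cells in 96-well plates were exposed to five compound concentrations for 48 h, and endpoints were estimated by linear interpolation. GI50: concentration for 50% inhibition of growth. TGI is the concentration that stops growth completely.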

For `[CH3][Hg]/[N]=C(/N)NC#N`, the GI50 is 4.27 µM in the experiment with DLD-1 colon; 1.98 µM with DMS 114 small cell lung; 4.63 µM with HOP-18 NSCLC; 17.3 µM with KM20L2 colon; 1.43 µM with LXFL 529 NSCLC; 4.76 µM in the experiment with SNB-78 CNS. In addition, the TGI stood at 16.9 µM in the experiment on DLD-1 colon; 3.43 µM in the experiment on DMS 114 small cell lung; 17.1 µM in the experiment on HOP-18 NSCLC; 33.4 µM in the experiment with KM20L2 colon; 3.08 µM with LXFL 529 NSCLC; 27.1 µM in the experiment on SNB-78 CNS.

`Cc1ccc(NC(=O)CC2SC(=Nc3ccc(Cl)cc3)NC2=O)cc1C` (configuration not stated): the TGI amounted to 38.5 µM in the experiment with DLD-1 colon; 42.1 µM in the experiment on DMS 114 small cell lung; 32.5 µM in the experiment with HOP-18 NSCLC; 33.5 µM with KM20L2 colon; 34 µM with LXFL 529 NSCLC; 44.3 µM in the experiment on SNB-78 CNS.

As to `CN1C2(c3ccccc3)C(C(=O)c3ccccc3)=C(C(=O)c3ccccc3)C1(c1ccccc1)c1c(-c3ccccc3)sc(-c3ccccc3)c12`, the TGI in the experiment with DLD-1 colon, in the experiment with DMS 114 small cell lung, in the experiment on KM20L2 colon, in the experiment with LXFL 529 NSCLC and in the experiment on SNB-78 CNS was above 100 µM in each case.

Regarding `Cc1cc(C)c(/C=N/NS(=O)(=O)c2ccccc2)c(C)c1`, the TGI in the experiment with DLD-1 colon, in the experiment on DMS 114 small cell lung, in the experiment on HOP-18 NSCLC, with KM20L2 colon, in the experiment with LXFL 529 NSCLC and with RXF-631 renal was above 100 µM in each case. The same molecule registered a TGI in the experiment with SNB-78 CNS above 100 µM.

Take `CC1=CC[C@@H](C(C)(C)O)C[C@@H]1O`: the TGI in the experiment with DLD-1 colon, with DMS 114 small cell lung, with KM20L2 colon, in the experiment on LXFL 529 NSCLC, in the experiment on RXF-631 renal and in the experiment on SNB-78 CNS was above 5000 µM in each case. The molecule further displayed a TGI with XF 498 CNS above 5000 µM.

With `CC(=O)O[C@@H]1CC[C@@]2(C)C(=O)C34C[C@@]5(C)C([C@@H](C)CCCC(C)C)CCC5(C)[C@](O)(O3)C(=O)[C@H]4C2C1(C)C` (some centres not stated), the TGI amounted to 34.7 µM with DLD-1 colon; 33.6 µM in the experiment with DMS 114 small cell lung; 29.5 µM in the experiment with HOP-18 NSCLC; 32.5 µM in the experiment with KM20L2 colon; 30.4 µM in the experiment on LXFL 529 NSCLC; 34.2 µM in the experiment with RXF-631 renal. For the same molecule, the TGI with SNB-78 CNS stood at 48.2 µM.

For the molecule `N#CCCN(c1ccc(C=O)cc1)S(=O)(=O)c1ccccc1`, the TGI in the experiment on DMS 114 small cell lung, in the experiment on KM20L2 colon, in the experiment with LXFL 529 NSCLC and in the experiment on XF 498 CNS was above 100 µM throughout.

For the molecule `COc1ccc2nc3ccccc3c(NCCN(CCCl)CCCl)c2c1`, the TGI in the experiment with DLD-1 colon is 4.04 µM; in the experiment on KM20L2 colon it was 2.4 µM; in the experiment on LXFL 529 NSCLC, 2.25 µM; in the experiment on RXF-631 renal, 4.71 µM; in the experiment on SNB-78 CNS it was 4.53 µM; with XF 498 CNS it was 1.89 µM.

`O=C(O)CCC1c2[nH]c3ccccc3c2CCN1Cc1ccccc1` (configuration not stated): the TGI in the experiment with DLD-1 colon, with DMS 114 small cell lung, in the experiment on HOP-18 NSCLC, in the experiment with KM20L2 colon, in the experiment on LXFL 529 NSCLC and with RXF-631 renal was above 100 µM each time. The same molecule had a TGI in the experiment on SNB-78 CNS above 100 µM.

As for `COC1C(=O)CCC2(CO2)C1(O)C1(C)OC1CC=C(C)C` (configuration not stated), the TGI in the experiment on MDA-N is above 100 µM.

As to `CCOC(=O)C(=O)C(C#N)c1ccc(Cl)cc1` (configuration not stated), the TGI with DLD-1 colon, in the experiment with DMS 114 small cell lung, in the experiment on KM20L2 colon, in the experiment on LXFL 529 NSCLC, in the experiment on SNB-78 CNS and in the experiment on XF 498 CNS was above 100 µM in each case.

As for `COc1cc(CC(=O)O)c([N+](=O)[O-])cc1OC`, the TGI with DLD-1 colon, with DMS 114 small cell lung, with KM20L2 colon, with LXFL 529 NSCLC, in the experiment on RXF-631 renal and in the experiment with SNB-78 CNS was above 100 µM throughout.

Take `O=C(CC(=O)c1cccc([N+](=O)[O-])c1)C(=O)Nc1ccccc1`: the TGI in the experiment on DLD-1 colon, in the experiment on DMS 114 small cell lung, with HOP-18 NSCLC, in the experiment on KM20L2 colon, with LXFL 529 NSCLC and with RXF-631 renal was above 100 µM each time. Further, the TGI in the experiment with SNB-78 CNS and with XF 498 CNS was above 100 µM each time.

Consider `COc1ccc([C@@H]2OC(=O)C3C2C(=O)O[C@H]3c2ccc(OC)cc2)cc1` (some centres not stated), for which the TGI in the experiment with DLD-1 colon, in the experiment on DMS 114 small cell lung, with HOP-18 NSCLC, in the experiment with KM20L2 colon, in the experiment with LXFL 529 NSCLC and in the experiment on RXF-631 renal was above 100 µM each time. Further, the TGI in the experiment with SNB-78 CNS and in the experiment with XF 498 CNS was above 100 µM throughout.

As for `COC(=O)C(C(=O)C(=O)Nc1ccccc1C)c1nc2ccc([N+](=O)[O-])cc2[nH]c1=O` (configuration not stated), the TGI with DLD-1 colon, in the experiment on DMS 114 small cell lung, in the experiment on HOP-18 NSCLC, in the experiment on KM20L2 colon, in the experiment on LXFL 529 NSCLC and with SNB-78 CNS was above 100 µM in each case. For the same molecule, in the experiment on XF 498 CNS, the TGI is above 100 µM.

`COc1cc2c(cc1-c1coc3cc(O)ccc3c1=O)OCO2` yielded a TGI with MDA-N above 100 µM.

Molecule `COc1cc2c(cc1[N+](=O)[O-])C(=O)C(Br)(Br)CCC2` came in with a TGI in the experiment on MDA-N of 9.46 µM.

For `O=C(CC1(O)C(=O)Nc2ccccc21)c1ccccc1O` (configuration not stated), the TGI with DLD-1 colon, in the experiment with DMS 114 small cell lung, in the experiment on KM20L2 colon, with LXFL 529 NSCLC, in the experiment on RXF-631 renal and in the experiment on SNB-78 CNS was above 100 µM each time. The molecule also gave a TGI in the experiment on XF 498 CNS above 100 µM.

For the molecule `CN(C)c1ccc(/C=c2/c3cc(O)ccc3n3c2cc(-c2ccccc2)[n+]3C)cc1`, the TGI in the experiment on MDA-N was determined as 1.96 µM.

(Values after PubChem BioAssay (NCI).)
